± gives the expanded uncertainty stated by the source.
Assay: mn = molality of the nth substance listed, in mol/kg
Conditions: 101.3 kPa, Liquid; for viscosity: Capillary tube (Ostwald / Ubbelohde) method; for mass density: Vibrating tube method

Cn1cnc2c1c(=O)[nH]c(=O)n2C [1H-purine-2,6-dione, 3,7-dihydro-3,7-dimethyl-] + O
Conditions	mass density, 288.15 K [kg/m3]	mass density, 298.15 K [kg/m3]	mass density, 308.15 K [kg/m3]	mass density, 318.15 K [kg/m3]	viscosity, 288.15 K [mPa·s]	viscosity, 298.15 K [mPa·s]	viscosity, 308.15 K [mPa·s]	viscosity, 318.15 K [mPa·s]
m1 = 0.00051	999.157 ± 8	997.073 ± 8	994.088 ± 8	990.268 ± 8	1.138 ± 0.025	0.891 ± 0.026	0.72 ± 0.025	0.597 ± 0.024
m1 = 0.0007	999.167 ± 8	997.083 ± 8	994.097 ± 8	990.277 ± 8	1.139 ± 0.025	0.891 ± 0.025	0.72 ± 0.024	0.597 ± 0.024
m1 = 0.0009	999.177 ± 8	997.093 ± 8	994.107 ± 8	990.287 ± 8	1.139 ± 0.025	0.891 ± 0.025	0.72 ± 0.024	0.597 ± 0.024
m1 = 0.00098	999.182 ± 8	997.097 ± 8	994.111 ± 8	990.291 ± 8	1.139 ± 0.025	0.891 ± 0.025	0.72 ± 0.024	0.597 ± 0.024
m1 = 0.00123	999.195 ± 8	997.11 ± 8	994.123 ± 8	990.303 ± 8	1.139 ± 0.025	0.891 ± 0.025	0.72 ± 0.024	0.597 ± 0.024
m1 = 0.00147	–	–	–	–	1.139 ± 0.025	0.891 ± 0.025	0.72 ± 0.024	0.597 ± 0.024
m1 = 0.00148	999.209 ± 8	997.123 ± 8	994.135 ± 8	990.314 ± 8	–	–	–	–
m1 = 0.00182	–	–	–	–	1.139 ± 0.025	0.891 ± 0.025	0.72 ± 0.024	0.597 ± 0.024
m1 = 0.00183	999.228 ± 8	997.141 ± 8	994.152 ± 8	990.331 ± 8	–	–	–	–
m1 = 0.00212	–	–	–	–	1.139 ± 0.025	0.891 ± 0.025	0.72 ± 0.025	0.597 ± 0.024
m1 = 0.00213	999.244 ± 8	997.156 ± 8	994.167 ± 8	990.346 ± 8	–	–	–	–

Cn1c(=O)c2[nH]cnc2n(C)c1=O [3,7-dihydro-1,3-dimethyl-1H-purine-2,6-dione] + O
Conditions	mass density, 288.15 K [kg/m3]	mass density, 298.15 K [kg/m3]	mass density, 308.15 K [kg/m3]	mass density, 318.15 K [kg/m3]	viscosity, 288.15 K [mPa·s]	viscosity, 298.15 K [mPa·s]	viscosity, 308.15 K [mPa·s]	viscosity, 318.15 K [mPa·s]
m1 = 0.00208	999.241 ± 8	997.153 ± 8	994.165 ± 8	990.343 ± 8	–	–	–	–
m1 = 0.00213	–	–	–	–	1.139 ± 0.025	0.891 ± 0.025	0.719 ± 0.024	0.597 ± 0.024
m1 = 0.00284	–	–	–	–	1.139 ± 0.025	0.892 ± 0.025	0.72 ± 0.024	0.597 ± 0.024
m1 = 0.00285	999.283 ± 8	997.192 ± 8	994.204 ± 8	990.379 ± 8	–	–	–	–
m1 = 0.00378	999.333 ± 8	997.239 ± 8	994.25 ± 8	990.423 ± 8	–	–	–	–
m1 = 0.00394	–	–	–	–	1.14 ± 0.025	0.892 ± 0.025	0.72 ± 0.024	0.598 ± 0.024
m1 = 0.00479	999.388 ± 8	997.291 ± 8	994.3 ± 8	990.472 ± 8	–	–	–	–
m1 = 0.00519	–	–	–	–	1.14 ± 0.025	0.892 ± 0.025	0.721 ± 0.024	0.598 ± 0.024
m1 = 0.00578	999.443 ± 8	997.341 ± 8	994.35 ± 8	990.519 ± 8	–	–	–	–
m1 = 0.00617	–	–	–	–	1.141 ± 0.025	0.893 ± 0.025	0.722 ± 0.024	0.599 ± 0.024
m1 = 0.00689	–	–	–	–	1.141 ± 0.025	0.893 ± 0.025	0.722 ± 0.024	0.599 ± 0.024
m1 = 0.00699	999.509 ± 8	997.404 ± 8	994.41 ± 8	990.578 ± 8	–	–	–	–
m1 = 0.00776	999.551 ± 8	997.443 ± 8	994.448 ± 8	990.614 ± 8	–	–	–	–
m1 = 0.00819	–	–	–	–	1.142 ± 0.025	0.894 ± 0.025	0.723 ± 0.024	0.599 ± 0.024
m1 = 0.00921	–	–	–	–	1.142 ± 0.025	0.895 ± 0.025	0.723 ± 0.024	0.6 ± 0.024
m1 = 0.00934	999.638 ± 8	997.526 ± 8	994.528 ± 8	990.691 ± 8	–	–	–	–
m1 = 0.00986	999.667 ± 8	997.554 ± 8	994.554 ± 8	990.716 ± 8	–	–	–	–

Cn1c(=O)c2c(ncn2C)n(C)c1=O [caffeine] + O
Conditions	mass density, 288.15 K [kg/m3]	mass density, 298.15 K [kg/m3]	mass density, 308.15 K [kg/m3]	mass density, 318.15 K [kg/m3]	viscosity, 288.15 K [mPa·s]	viscosity, 298.15 K [mPa·s]	viscosity, 308.15 K [mPa·s]	viscosity, 318.15 K [mPa·s]
m1 = 0.00508	–	–	–	–	1.14 ± 0.025	0.895 ± 0.025	0.723 ± 0.024	0.599 ± 0.024
m1 = 0.0051	999.404 ± 8	997.304 ± 8	994.303 ± 8	990.464 ± 8	–	–	–	–
m1 = 0.00693	–	–	–	–	1.142 ± 0.025	0.896 ± 0.025	0.724 ± 0.024	0.6 ± 0.024
m1 = 0.00695	999.505 ± 8	997.399 ± 8	994.39 ± 8	990.545 ± 8	–	–	–	–
m1 = 0.009	–	–	–	–	1.144 ± 0.025	0.896 ± 0.025	0.724 ± 0.024	0.601 ± 0.024
m1 = 0.00902	999.619 ± 8	997.504 ± 8	994.488 ± 8	990.637 ± 8	–	–	–	–
m1 = 0.01986	–	–	–	–	1.147 ± 0.025	0.9 ± 0.025	0.728 ± 0.024	0.606 ± 0.024
m1 = 0.01993	1000.22 ± 8	998.06 ± 8	995.013 ± 8	991.121 ± 8	–	–	–	–
m1 = 0.02978	–	–	–	–	1.152 ± 0.025	0.905 ± 0.025	0.732 ± 0.024	0.609 ± 0.024
m1 = 0.02992	1000.77 ± 8	998.576 ± 8	995.497 ± 8	991.571 ± 8	–	–	–	–
m1 = 0.03531	1001.07 ± 8	998.853 ± 8	995.759 ± 8	991.812 ± 8	–	–	–	–
m1 = 0.03533	–	–	–	–	1.154 ± 0.025	0.907 ± 0.025	0.735 ± 0.024	0.611 ± 0.024
m1 = 0.03983	–	–	–	–	1.156 ± 0.025	0.91 ± 0.025	0.737 ± 0.024	0.613 ± 0.024
m1 = 0.04008	1001.34 ± 8	999.101 ± 8	996.001 ± 8	992.025 ± 8	–	–	–	–
m1 = 0.04953	–	–	–	–	1.162 ± 0.025	0.914 ± 0.025	0.741 ± 0.024	0.617 ± 0.024
m1 = 0.04992	1001.89 ± 8	999.619 ± 8	996.484 ± 8	992.483 ± 8	–	–	–	–
